In publication PMC11345330, “Structural, Biochemical, and Phylogenetic Analysis of Bacterial and Fungal Carbohydrate Esterase Family 15 Glucuronoyl Esterases in the Rumen” (The Protein Journal, 2024):

Molecular target: T1, FsCE15 (Fibrobacter succinogenes, UniProt C9RKY6)
T1 construct: gene FSU_2898; codon-optimised synthetic gene, His6 tag (C-terminal for crystals)
Test: continuous coupled uronic acid assay (Megazyme K-Uronic)
Assay type: biochemical
Settings: pH 7.0, 3-component buffer, 2 mM substrate

T1 sequence (C9RKY6 entry or part of it): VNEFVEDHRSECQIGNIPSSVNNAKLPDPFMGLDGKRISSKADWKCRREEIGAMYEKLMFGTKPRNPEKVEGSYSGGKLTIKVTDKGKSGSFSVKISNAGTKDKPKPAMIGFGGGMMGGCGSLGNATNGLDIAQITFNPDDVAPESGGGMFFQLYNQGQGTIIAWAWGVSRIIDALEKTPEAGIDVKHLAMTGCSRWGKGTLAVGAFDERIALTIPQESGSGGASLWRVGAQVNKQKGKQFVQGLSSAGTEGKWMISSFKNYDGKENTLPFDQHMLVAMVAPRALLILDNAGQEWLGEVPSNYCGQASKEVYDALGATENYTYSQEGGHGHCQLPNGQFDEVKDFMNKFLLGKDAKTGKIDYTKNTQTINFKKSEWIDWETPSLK

In the case of `C=CCOC(=O)[C@H]1OC(O)[C@H](O)[C@@H](O)[C@@H]1O` (stereo partly drawn) [Allyl D-glucuronate], the “continuous coupled uronic acid assay (Megazyme K-Uronic)” value is reported as “All of the enzymes cleaved AllylGlcA”.
